“And” between values parts separate entries of the source, which are not always exact repeats. Identical values can stand only once.
System: DMS-114 complex spheroids with HUVEC/MSC, growth % test/control
Assay: Anticancer human tumor DMS-114 cell line growth inhibition [AhR];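 note: spheroids exposed to agents for 7 days before readout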;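 for viability, T/C: 100% = DMSO vehicle control wells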
Conditions: for viability, T/C: stronger effect = lower value
Excerpt: Multicellular complex tumor spheroid response to aryl hydrocarbon receptor antagonists in combination with a variety of drugs and investigational agents in selected tumor cell lines
The current study was undertaken to assess response to aryl hydrocarbon receptor antagonists in combination with standard-of-care drugs and investigational agents in solid tumor complex spheroid models. Complex spheroids include a stromal component modeled by human endothelial cells (HUVEC) and fibroblasts modeled by human mesenchymal stem cells (MSCs). The concentration ranges selected for each drug and investigational agent were based upon clinically achievable concentrations if the clinical Cmax of the agent was known.
Compounds. The drugs and investigational agents: BAY 2416964 (NSC825713), GNF351 (NSC835774), CH-223191 (NSC835775), CPI-455 (NSC825282), aza-TdCyd (NSC777586), decitabine (NSC127716), belinostat (NSC758774), entinostat (NSC756642), pevonedistat (NSC761192), tazemetostat (NSC777109), talazoparib (NSC765396), olaparib (NSC753686), selinexor (NSC780203), nedisertib (M3814, NSC802822), bortezomib (NSC756655), venetoclax (NSC766270), doxorubicin (NSC123127), elimusertib (BAY189344, NSC800525), ceralasertib (AZD6738, NSC777638), TAK-243 (NSC785004), alisertib (NSC759677), etoposide (NSC141540), topotecan (NSC609699), eribulin (NSC707389), gemcitabine (NSC613327), carboplatin (NSC241240), cisplatin (NSC119875), and SN-38 (NSC673596) were obtained from the National Cancer Institute (NCI) Developmental Therapeutics Program Chemical Repository (32). The FDA-approved anticancer drug set is available from the Developmental Therapeutics Program at https://dtp.cancer.gov/organization/dscb/obtaining/available plates.htm. […] The stock solutions were prepared in dimethyl sulfoxide (DMSO, Sigma-Aldrich, St. Louis, MO, cat. D2650), except for the platinum compounds which were prepared in saline (Quality Biological, Gaithersburg, MD, cat. 114-055-101), at 800-fold the tested concentration and stored at -70 degrees C prior to their use. All drugs and investigational agents were tested over a range starting from a high concentration at or near the clinical Cmax and decreasing in half-log increments. If the clinical Cmax for an agent had not been determined, the highest concentration tested was 10 microM (Table 1).
Cell Culture. All cells were maintained in an incubator at 37 degrees C and 5% CO2 with 95% humidity. The PDC lines were cultured according to standard operating procedures established by the NCI PDMR (https://pdmr.cancer.gov). Briefly, all PDCs were thawed and cultured in Matrigel-coated flasks prepared with a working solution of 1X Ham's F-12 nutrient mix, without supplementation (Invitrogen, Waltham, MA, cat. 11765054), 100 U/mL penicillin-streptomycin (Invitrogen, cat. 15140122), and 2.5% Matrigel (Corning Inc., Corning, NY, cat. 354248) for the first three passages. All PDCs were cultured in complete DMEM/F-12 media containing advanced DMEM/F-12 (Invitrogen, cat. 12634028), 4.9% defined fetal bovine serum, heat inactivated (HyClone Laboratories Inc., Logan, UT, cat. SH30070.03HI), 389 ng/mL hydrocortisone (Sigma-Aldrich, cat. H4001), 9.7 ng/mL human EGF recombinant protein (Invitrogen, cat. PHG0313), 23.4 microg/mL adenine (Sigma-Aldrich, cat. A2786), 97.3 U/mL penicillin-streptomycin (Invitrogen, cat. 15140122), 1.9 mM L-glutamine (Invitrogen, cat. 25030081), and 9.7 microM Y-27632 dihydrochloride (Tocris Bioscience, Bristol, United Kingdom, cat. 1254). The PDCs were cultured in complete DMEM/F12 media without 10 microM Y-27632 dihydrochloride for at least two passages prior to the screen. The established cell lines NCI-H1341 and […] were cultured in DMEM/F-12, HEPES (Invitrogen, cat. 11330032), 5% defined fetal bovine serum (HyClone Laboratories Inc., cat. SH30070.03), ITS premix universal culture supplement [insulin (5 microg/mL), transferrin (5 microg/mL), and selenious acid (5 ng/mL)] […]

SMILES | IC50 (curve of compound) | viability, T/C (compound 0.0316 µM) | viability, T/C (compound 0.1 µM) | viability, T/C (compound 0.316 µM) | viability, T/C (compound 1 µM) | viability, T/C (compound 3.16 µM) | viability, T/C (compound 10 µM) | other results
CC(C)CC(NC(=O)C(Cc1ccccc1)NC(=O)c1cnccn1)B(O)O (stereo not drawn) | 5.51 nM and 5.76 nM and 4 nM |  |  |  |  |  |  | viability, T/C (compound 0.000949 µM): 98.7% and 95% and 101%; viability, T/C (compound 0.003 µM): 109% and 105% and 66.2%; viability, T/C (compound 0.00949 µM): 1.7% and 11.6% and 1.54%; viability, T/C (compound 0.03 µM): 0.16% and 0.44% and 0.39%; viability, T/C (compound 0.0949 µM): 0.13% and 0.38% and 0.33%; viability, T/C (compound 0.3 µM): 0.21% and 0.32% and 0.4%
CC(C)c1c(-c2ccccc2)nc2c(C#N)c[nH]n2c1=O | > 10000 nM | 104% and 106% and 108% | 117% and 104% and 101% | 108% and 99.2% and 105% | 105% (2×) and 96.3% | 116% and 99.7% and 105% | 111% and 102% (2×) | 
CC(CO)NC(=O)c1cc(-c2ccc(Cl)cc2)nn(-c2cnn(C)c2)c1=O (stereo not drawn) |  |  | 98.2% [middle of 20 runs] |  | 95.8% [middle of 21 runs] |  |  | IC50 (compound alone, run of 07/12/2022): > 10000 nM
CC1(C)CCC(CN2CCN(c3ccc(C(=O)NS(=O)(=O)c4ccc(NCC5CCOCC5)c([N+](=O)[O-])c4)c(Oc4cnc5[nH]ccc5c4)c3)CC2)=C(c2ccc(Cl)cc2)C1 | > 10000 nM | 101% and 99.7% and 98.9% | 102% and 97.2% and 99% | 92.6% and 103% and 110% | 98.6% and 108% and 117% | 113% and 107% and 116% | 107% and 105% and 61.2% | 
CC1COCCN1c1cc(-c2ccnn2C)c2ccnc(-c3ccn[nH]3)c2n1 (stereo not drawn) |  | 50.2% and 101% and 62.9% | 32.1% and 81.2% and 45% | 21.2% and 65.8% and 31.5% | 10.6% and 33.4% and 15.8% |  |  | viability, T/C (compound 0.00316 µM): 89.5% and 94.4% and 96.2%; viability, T/C (compound 0.01 µM): 76.2% and 102% and 80.5%
CC1COCCN1c1cc(C2(S(C)(=N)=O)CC2)nc(-c2ccnc3[nH]ccc23)n1 (stereo not drawn) | 5130 nM and > 10000 nM and 5460 nM | 99.2% and 97.3% and 90.2% | 114% and 106% and 101% | 99.1% and 96.2% and 87.3% | 98.6% and 98.9% and 78.1% | 66.1% and 101% and 65.9% | 27.7% and 76.4% and 33.8% | 
CCN(c1cc(-c2ccc(CN3CCOCC3)cc2)cc(C(=O)NCc2c(C)cc(C)[nH]c2=O)c1C)C1CCOCC1 | > 3000 nM |  |  |  |  |  |  | viability, T/C (compound 0.00949 µM): 99.5% and 108% and 105%; viability, T/C (compound 0.03 µM): 110% and 95.2% and 118%; viability, T/C (compound 0.0949 µM): 112% and 105% and 109%; viability, T/C (compound 0.3 µM): 101% and 100% and 115%; viability, T/C (compound 0.949 µM): 73.7% and 104% and 92.1%; viability, T/C (compound 3 µM): 68.2% and 106% and 76.9%
CC[C@@]1(O)C(=O)OCc2c1cc1n(c2=O)Cc2cc3c(CN(C)C)c(O)ccc3nc2-1 | 23.4 nM and 27.8 nM and 64.4 nM | 39.3% and 44.6% and 60.9% | 19% and 22.2% and 43.2% |  |  |  |  | viability, T/C (compound 0.000316 µM): 101% (2×) and 99%; viability, T/C (compound 0.001 µM): 96.5% and 104% and 98.2%; viability, T/C (compound 0.00316 µM): 93.2% and 85.7% and 107%; viability, T/C (compound 0.01 µM): 79.9% and 87.8% and 95.2%
CCc1c2c(nc3ccc(O)cc13)-c1cc3c(c(=O)n1C2)COC(=O)[C@]3(O)CC | 2.01 nM and 9.5 nM and 1.79 nM |  |  |  |  |  |  | viability, T/C (compound 0.000949 µM): 67.7% and 96.1% and 59.2%; viability, T/C (compound 0.003 µM): 40.4% and 91.2% and 42.6%; viability, T/C (compound 0.00949 µM): 20% and 50% and 21.4%; viability, T/C (compound 0.03 µM): 13.4% and 36.5% and 21.1%; viability, T/C (compound 0.0949 µM): 14.4% and 37.9% and 15.2%; viability, T/C (compound 0.3 µM): 14.4% and 35.1% and 16.7%
COc1cc(C2c3cc4c(cc3C(OC3OC5COC(C)OC5C(O)C3O)C3COC(=O)C23)OCO4)cc(OC)c1O (stereo not drawn) | 402 nM and 682 nM and 1810 nM | 96.4% and 99.5% and 94.3% | 85.2% and 85.9% and 99% | 57.3% and 77% and 89.2% | 23.7% and 34.1% and 60.9% | 16.9% and 30.2% and 40.8% | 9.04% and 15.1% and 30.3% | 
COc1cc(Nc2ncc3c(n2)-c2ccc(Cl)cc2C(c2c(F)cccc2OC)=NC3)ccc1C(=O)O |  | 24.8% and 65.8% and 25.6% | 24.5% and 56.9% and 27.2% | 40% and 108% and 56% | 65.1% and 114% and 79% | 64% and 116% and 85.6% | 74.5% and 104% and 61.2% | 
COc1ccc([C@@H](O)c2cc(-c3ncnc4cc(N5CCOCC5)ccc34)c(F)cc2Cl)nn1 | > 10000 nM | 104% and 102% and 101% | 107% and 101% and 103% | 96.9% and 107% and 112% | 97.4% and 114% and 94.8% | 102% and 110% and 95.2% | 56% and 96.2% and 56.6% | 
